The source of these data is ChEMBL document CHEMBL1152952, “Synthesis and pharmacological evaluation of 1,2,3,4-tetrahydropyrazino[1,2-a]indole and 2-[(phenylmethylamino)methyl]-1H-indole analogues as novel melatoninergic ligands” (Bioorg Med Chem, 2009).

What is called IC50 is the point on the concentration scale where inhibition reaches its midpoint. A word on the inhibition: it is the share of the control response that was lost under treatment.

Each structure is given as a SMILES string. Active and inactive are the calls of the source. The rule behind the calls is not given here.

In assay [1] the target is T1, Melatonin receptor type 1A (Homo sapiens, UniProt P48039). Kind of assay: Displacement of 2-[125I]iodomelatonin from human MT1 receptor expressed in CHO cells by gamma counting. The class given is cell-based.
Assay [2] is filed under the species Homo sapiens. Kind of assay: Selectivity ratio of Ki for human MT1 receptor to Ki for human MT2 receptor.
Assay [3] deals with T2, Melatonin receptor type 1B (Homo sapiens, UniProt P49286).
T2 sequence (P49286 whole entry): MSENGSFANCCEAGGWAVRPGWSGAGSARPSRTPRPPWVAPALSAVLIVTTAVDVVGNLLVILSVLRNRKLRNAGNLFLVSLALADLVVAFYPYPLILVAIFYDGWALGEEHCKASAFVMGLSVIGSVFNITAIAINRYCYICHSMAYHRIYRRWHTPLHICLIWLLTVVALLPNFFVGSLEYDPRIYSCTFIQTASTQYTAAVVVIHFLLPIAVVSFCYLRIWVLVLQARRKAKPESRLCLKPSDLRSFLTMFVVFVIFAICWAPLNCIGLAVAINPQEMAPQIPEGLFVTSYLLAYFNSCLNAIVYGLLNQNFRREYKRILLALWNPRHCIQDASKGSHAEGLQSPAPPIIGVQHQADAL
The assay is described as follows: Displacement of 2-[125I]iodomelatonin from human MT2 receptor expressed in CHO cells by gamma counting. The class given is cell-based.

For assay [4], the target named is T3, Melatonin receptor type 1B (Homo sapiens) (UniProt P49286).
T3 sequence (whole entry): T2 sequence (P49286 whole entry)
The assay is described as follows: Intrinsic activity at human MT2 receptor expressed in CHO cells assessed as inhibition of forskolin-induced cAMP accumulation at 10 nM. The format is functional, cell-based. (Cyclic AMP is a second messenger, typically raised through Gs and lowered through Gi signalling.)

The target of assay [5] is T1, Melatonin receptor type 1A. Kind of assay: Agonist activity at human MT1 receptor expressed in CHO cells assessed as inhibition of forskolin-induced cAMP accumulation. The format is functional, cell-based.
Assay [6] deals with T1, Melatonin receptor type 1A. Kind of assay: Agonist activity at human MT1 receptor expressed in CHO cells assessed as inhibition of forskolin-induced cAMP accumulation at 10 nM. The class given is functional, cell-based.
Assay [7] addresses T1, Melatonin receptor type 1A. Kind of assay: Agonist activity at human MT1 receptor expressed in CHO cells assessed as inhibition of forskolin-induced cAMP accumulation at 1 uM. The class given is functional, cell-based.

T1 sequence (P48039 whole entry): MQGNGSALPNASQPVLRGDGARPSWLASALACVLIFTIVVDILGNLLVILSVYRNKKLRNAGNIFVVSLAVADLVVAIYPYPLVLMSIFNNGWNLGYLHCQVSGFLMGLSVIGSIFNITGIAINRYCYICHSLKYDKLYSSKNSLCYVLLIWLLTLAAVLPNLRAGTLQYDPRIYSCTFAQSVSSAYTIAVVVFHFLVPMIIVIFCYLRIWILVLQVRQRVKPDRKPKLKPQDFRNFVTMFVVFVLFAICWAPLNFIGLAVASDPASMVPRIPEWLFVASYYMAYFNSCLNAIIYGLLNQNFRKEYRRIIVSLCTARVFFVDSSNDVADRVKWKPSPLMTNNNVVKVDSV

Take `COc1ccc2c(c1)c(CCNC(C)=O)c1n2CCCN(C)C1`: the values for the Ki in assay [1] (read-out: pKi (converted)) and in assay [3] (read-out: pKi (converted)) were 5620 nM and 891 nM, respectively. Moreover, in assay [2], the Ratio Ki turned out to be 6.

Take `CCCC(=O)NCCc1c2n(c3ccc(OC)cc13)CCN(C)C2`: the result in assay [4] was inactive. Further, the Ki in assay [1] (read-out: pKi (converted)) was 6.61 nM; in assay [3] (read-out: pKi (converted)), 6.92 nM. Further, the 50% inhibitory concentration (IC50) in assay [5] is 3.14 nM. Besides, the inhibition in assay [6] turned out to be 12%.

As to `COc1ccc2[nH]c(CN(C)c3ccc(Cl)cc3)c(CCNC(C)=O)c2c1`, the Ki in assay [1] (read-out: pKi (converted)) is 257 nM; in assay [3] (read-out: pKi (converted)), 42.7 nM. Also, the Ratio Ki in assay [2] was 6.

Turning to `COc1ccc2[nH]c(CN(C)c3ccc(C(F)(F)F)cc3)c(CCNC(C)=O)c2c1`, the Ki in assay [1] (read-out: Ki) is 111 nM; in assay [3] (read-out: Ki) it was 63 nM.

Regarding `CCCC(=O)NCCc1c2n(c3ccccc13)CCN(C)C2`, the Ki was 257 nM in assay [1] (read-out: pKi (converted)) and 85.1 nM in assay [3] (read-out: pKi (converted)).

As to `CCN(C)Cc1[nH]c2ccc(OC)cc2c1CCNC(C)=O`, the Ki in assay [1] (read-out: pKi (converted)) is 1000 nM; in assay [3] (read-out: pKi (converted)), 224 nM.

For the molecule `COc1ccc2[nH]c(CN(C)c3ccccc3)c(CCNC(C)=O)c2c1`, the inhibition in assay [7] is 60%. Also, in assay [4], the result was inactive. The Ki is 15.5 nM in assay [1] (read-out: pKi (converted)) and 2.29 nM in assay [3] (read-out: pKi (converted)). Besides, the Ratio Ki in assay [2] is 8.

Regarding `COc1ccc2c(c1)c(CCNC(C)=O)c1n2CCN(C)C1`, the Ki in assay [1] (read-out: pKi (converted)) is 11.7 nM; in assay [3] (read-out: pKi (converted)), 7.76 nM.

With `COc1ccc2[nH]c(CN(C)Cc3ccccc3)c(CCNC(C)=O)c2c1`, the results for the Ki in assay [1] (read-out: pKi (converted)) and in assay [3] (read-out: pKi (converted)) were 1290 nM and 661 nM, respectively.

With `COc1ccc2c(c1)CC1Cn3c(c(CCNC(C)=O)c4cc(OC)ccc43)CN21` (centres undefined), the Ratio Ki in assay [2] worked out at 4.4.

For `COc1ccc(N(C)Cc2[nH]c3ccc(OC)cc3c2CCNC(C)=O)cc1`, the Ki in assay [1] (read-out: Ki) was 8 nM; in assay [3] (read-out: Ki) it was 9 nM.
